One assay concerns Escherichia coli strains. Type of assay: cell-based. The following applies: isogenic pair of E. coli K-12 strains. The procedure: (§1) MICs were determined by microdilution susceptibility testing in 96-well plates (by Nunc) using inocula of 10^5 bacteria per ml. Cell populations were evaluated by optical density measurements at 620 nm and were calibrated against a set of standards. Hundred (100) μl of a bacterial suspension were added to 100 μl of culture medium (control) or to 100 μl of culture medium containing various polymer concentrations in 2-fold serial dilutions. Inhibition of proliferation was determined by optical density measurements at 620 nm after an incubation period of 24 hours at 37° C.

In the next assay the test system is E. coli CI14213. Type of assay: cell-based, Escherichia coli. The settings on record: for MIC of polymer: CI14213; for re-sensitizing effect of polymer on oxacillin: E. coli CI14213, polymer well below MIC (up to ⅛ MIC), 24 hours. How it is done:
as §1

For assay [1], the system named is E. coli K-12 efflux knockout mutant. Format: cell-based, Escherichia coli. The following applies: E. coli K-12 strain with decreased levels of efflux pumps. The procedure: as §1
The subject of assay [2] is E. coli K-12 resistant wild type. Type of assay: cell-based, Escherichia coli. The following applies: E. coli K-12 multi-resistant wild type.
Assay [3] deals with E. coli N282 (L4 mutation). Format: cell-based, Escherichia coli. The following applies: E. coli N282; polymer alone.
Another assay relates to MRSA 15903. The assay is described as follows: microbe, parasite or virus in culture. Type of assay: cell-based, Staphylococcus aureus. The following applies: S. aureus CI-15903; +polymer (⅓ MIC) C12(5-ene)KKNC12KNH2. How it is done:
The fractionary inhibitory (FIC) concentration index for combinations of two antimicrobial agents was calculated as follows: FIC index=FICA+FICB=A/MICA+B/MICB where A and B are the MIC values of agent A and agent B in the combination, MICA and MICB are the MICs of agent A and agent B alone, and FICA and FICB are the FICs of agent A and agent B.
The FIC indexes were interpreted as follows: less than 0.5 indicates a clear re-sensitizing effect; from 0.5 to 4 indicates a marginal or null re-sensitizing effect; and over 4 indicates antagonism.
Experimental data for FIG. 4 were obtained as follows.

The subject of assay [4] is E. coli N281 (L22 mutation). Type of assay: cell-based, Escherichia coli. The settings on record: E. coli N281; polymer alone.

Several values for one entry are separate records, joined by “and”; a condition that tells them apart may be missing. Equal entries are not always repeated.

Turning to `CCCCCCCCCCCC(=O)N[C@@H](CCCCN)C(=O)NCCCCCCCC(=O)N[C@@H](CCCCN)C(=O)NCCCCCCCC(=O)N[C@@H](CCCCN)C(=O)NCCCCCCCC(=O)N[C@@H](CCCCN)C(=O)NCCCCCCCC(=O)N[C@@H](CCCCN)C(=O)NCCCCCCCC(=O)N[C@@H](CCCCN)C(N)=O` [C12K(NC8K)5NH2], the MIC of polymer was 3.125 µg/mL in the assay with Escherichia coli strains and 6.2 µM with E. coli CI14213. In addition, the “re-sensitizing effect of polymer on oxacillin” value in the assay with E. coli CI14213 was “endowed potency to oxacillin”. For the same molecule, in assay [1], the “effect of polymer on antibiotic MICs” value is given as “not altered significantly”. Moreover, in assay [2], the “effect of polymer on antibiotics potency” value is “enhanced antibiotics potency”.
Consider `CCCCCCCCCCCC(=O)N[C@@H](CCCCN)C(=O)NCCCCCCCC(=O)N[C@@H](CCCCN)C(=O)NCCCCCCCC(=O)N[C@@H](CCCCN)C(=O)NCCCCCCCC(=O)N[C@@H](CCCCN)C(=O)NCCCCCCCC(=O)N[C@@H](CCCCN)C(=O)NCCCCCCCC(=O)N[C@@H](CCCCN)C(=O)NCCCCCCCC(=O)N[C@@H](CCCCN)C(=O)NCCCCCCCC(=O)N[C@@H](CCCCN)C(N)=O` [C12K(NC8K)7NH2], for which the MIC of polymer in the assay on Escherichia coli strains was 3.125 µg/mL; in the assay on E. coli CI14213, 3.1 µM; in assay [3], 1.6 µM and 3.1 µM; in assay [4], 3.1 µM. For the same molecule, the “re-sensitizing effect of polymer on oxacillin” value in the assay on E. coli CI14213 is reported as “endowed potency to oxacillin”. Besides, the “effect of polymer on antibiotic MICs” value in assay [1] is “not altered significantly”. In addition, the MIC in the assay with MRSA 15903 came to 12.5 µg/mL. The “effect of polymer on antibiotics potency” value in assay [2] is “enhanced antibiotics potency”.

Source of the values: patent publication US20180153995A1, “USE OF ANTIMICROBIAL POLYMERS FOR RE-SENSITIZATION OF MICROORGANISMS UPON EMERGENCE OF RESISTANCE TO ANTI-MICROBIAL AGENTS” (Technion Research & Development Foundation Limited, priority 2008, published 2018).
